The results in this text go back to US20240245694A1, “Tricyclic Compounds and their Uses” (Novartis AG, priority 2022, published 2024).

One data set deals with SW48 cells. The data set is described as follows: Proliferation assay SW48 (CellTiterGlo, 96 hours). Type of data set: cell-based. To be noted: Homo sapiens. In outline:
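Cells in RPMI-1640/10% FCS were seeded overnight (SW48 2'000, DLD1-WRN-KO 1'500 cells/well), then exposed to eight 3-fold compound dilutions at 0.1% DMSO. ATP luminescence relative to a day-0 plate gives % growth (0% stasis, −100% complete kill). GI50 is the geometric mean of ≥2 independent replicates.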
(ATP-based viability assays read luminescence as a measure of living cells.)

Data set [1] is described as follows: Storage stability of the solid at RT. In kind it is physicochemical. To be noted: stored at RT under ambient atmosphere for several months; degradation product Example 25. The text has this:
2.60 g (3.51 mmol) of Example 21A (7R,9R)—N-(2-chloro-4-(trifluoromethyl)phenyl)-2-(3,6-dihydro-2H-pyran-4-yl)-6-((1S,6S)-5-(5-hydroxy-6-methylpyrimidine-4-carbonyl)-2,5-diazabicyclo[4.2.0]octan-2-yl)-7-methyl-5-oxo-5,7,8,9-tetrahydropyrrolo[1,2-c][1,2,4]triazolo[1,5-a]pyrimidine-9-carboxamide was stored at RT under ambient atmosphere for several months, by which the purity decreased to 86%. The degradation product title compound Example 25 was isolated by column chromatography (RediSep Column: Silica 80 g, eluent DCM:MeOH 100:0 to 90:10). The product containing fractions were combined and concentrated under reduced pressure to give a yellow foam. This foam was further purified by chiral SFC (instrument: Waters Prep SFC100-MS; column: Chiralpak IB-N 250 mm×30 mm 5 μm; eluent: A: 55% MeOH+0.1% NH3, B: 45% scCO2; flow rate: 78.0 mL/min; detection: DAD; injection volume: 1.1 mL; gradient: isocratic A: 55%, B: 45%).

For `Cc1ncnc(C(=O)N2CCN(c3c4n(c5nc(C6=CCOCC6)nn5c3=O)[C@@H](C(=O)Nc3ccc(C(F)(F)F)cc3Cl)C[C@H]4C)C[C@H]2C)c1O` [Example 18A, (7R,9R)—N-(2-chloro-4-(trifluoromethyl)phenyl)-2-(3,6-dihydro-2H-pyran-4-yl)-6-((R)-4-(5-hydroxy-6-methylpyrimidine-4-carbonyl)-3-methylpiperazin-1-yl)-7-methyl-5-oxo-5,7,8,9-tetrahydropyrrolo[1,2-c][1,2,4]triazolo[1,5-a]pyrimidine-9-carboxamide], in the data set with SW48 cells, halving of growth (GI50) required 40 nM.
`Cc1ncnc(C(=O)N2CCN(c3c4n(c5nc(C6=CCOCC6)nn5c3=O)[C@@H](C(=O)Nc3ccc(C(F)(F)F)cc3Cl)C[C@H]4C)[C@H]3CC[C@@H]32)c1O` [Example 21A, (7R,9R)—N-(2-chloro-4-(trifluoromethyl)phenyl)-2-(3,6-dihydro-2H-pyran-4-yl)-6-((1S,6S)-5-(5-hydroxy-6-methylpyrimidine-4-carbonyl)-2,5-diazabicyclo[4.2.0]octan-2-yl)-7-methyl-5-oxo-5,7,8,9-tetrahydropyrrolo[1,2-c][1,2,4]triazolo[1,5-a]pyrimidine-9-carboxamide]: in the data set on SW48 cells, growth was halved (GI50) at 6 nM. In data set [1], the purity after storage came out at 86%.
